Columns and labels:
Histamine, H1 = target: T1, Histamine, H1 (Bos taurus, UniProt P30546); test: Histamine H1 binding assay; conditions: Test Compound @ 10 1 M, read-out: Receptor Binding % Inhibition
T1 construct: Novascreen (assay provider)

Melatonin = test: Receptor binding assay: Melatonin; conditions: Test Compound @ 10 1 M
Dopamine, D2s (hr) = Dopamine, D2s (hr) (Homo sapiens, UniProt P14416); test: Receptor binding assay: Dopamine D2s; conditions: Test Compound @ 10 1 M
Histamine, H3 = test: Receptor binding assay: Histamine H3; conditions: Test Compound @ 10 1 M
Serotonin, 5HT1A (hr) = target: T2, Serotonin, 5HT1A (hr) (Homo sapiens, UniProt P08908); test: Receptor binding assay: Serotonin 5HT1A; conditions: Test Compound @ 10 1 M
T2 construct: Novascreen (contract assay)

Sigma 2 = test: Receptor binding assay: Sigma 2; conditions: Test Compound @ 10 1 M
Imidazoline, I2 central = test: Imidazoline binding assay: I2 central; conditions: Test Compound @ 10 1 M
Glutamate, AMPA Site = test: Receptor binding assay: Glutamate AMPA site; conditions: Test Compound @ 10 1 M
CACO-2 cells = test: Permeability assessment, HTS-24 CACO-2 model; type: in vitro ADME
Protocol: The rate of drug transport through the CACO-2 cells was determined as the Apparent Permeability Coefficient according to the following formula:
Papp=AQ X Rv cm.s- AT 60.A.Co
ΔT=Change in time (minutes)
Co=Initial concn in the donor chamber (mM.cm^−3)
A=Surface area of membrane (cm^2)
60=Conversion factor to give cm.s^−1
Rv=volume of receiver compartment.
Transepithelial electrical resistance (TER) was calculated from resistance measurements according to the following formula: TER=(R[cells+filter+medium])−(R[filter+medium])×cell area.
Apparent permeability rates were interpreted as follows. […] Apparent permeability values less than metoprolol or propranolol are considered to be ≦90% fa (moderate permeability classification). Apparent permeability values of <10 nms^−1 are considered to be ≦50% fa (low permeability classification). TER values of <120 ohms cm^2 indicate low monolayer integrity over the assay period.
A compound/metoprolol or propranolol ratio of <1 indicates a moderate to low permeability compound.

[1] = target: Adrenergic, Alpha 2C (hr) (Homo sapiens, UniProt P18825); test: Receptor binding assay: Adrenergic Alpha 2C; conditions: Test Compound @ 10 1 M
Adrenergic, Beta 2 (hr) = Adrenergic, Beta 2 (hr) (Homo sapiens, UniProt P07550); test: Receptor binding assay: Adrenergic Beta 2; conditions: Test Compound @ 10 1 M
Dopamine, D4.4 (hr) = Dopamine, D4.4 (hr) (Homo sapiens, UniProt P21917); test: Receptor binding assay: Dopamine D4.4; conditions: Test Compound @ 10 1 M
Oxidase, MAO-A, Central = target: T3, Oxidase, MAO-A, Central (Rattus norvegicus, UniProt P21396); test: Receptor binding assay: Oxidase MAO-A central (first line); conditions: Test Compound @ 10 1 M
T3 construct: Novascreen (contract assay)

[2] = system: spinal nerve ligation model of neuropathic pain, mechanical hyperalgesia; test: Spinal nerve ligation model of neuropathic pain, mechanical hyperalgesia; type: in vivo; conditions: rat
Protocol: 1-[2-dimethylamino-1-(4-phenol)ethyl]-cis-1,4-cyclohexandiol was dissolved in sterile saline and administered orally (p.o.) at dosages of 10 mg/kg, 30 mg/kg and 100 mg/kg. Gabapentin was purchased from Toronto Research Chemicals (Ontario, Canada) and suspended in 2% Tween 80 in 0.5% methylcellulose and administered intraperitoneally (i.p.).
For the visceral pain study male CD-1 mice (20-25 g, Charles River; Kingston/Stoneridge, NY) were housed in groups of 5/cage on bedding and for the neuropathic study male Sprague-Dawley rats (125-150 g, Harlan; Indianapolis, Ind.) were housed 3/cage on bedding. For all studies animals were maintained in climate-controlled rooms on a 12-hour light/dark cycle (lights on at 0630) with food and water available ad libitum.
Surgical procedures were performed under 4% isoflurane/O2 anesthesia, delivered via nose cone and maintained at 2.5% for the duration of the surgery. After induction of anesthesia, the incision site was shaved and prepared in a sterile manner. […]
For the neuropathic model statistical significance was determined using a repeated measure ANOVA using a customized SAS-excel application (SAS Institute, Cary, N.C.). Significant main effects were analyzed further by subsequent least significant difference analysis. […]
Assessment of mechanical hyperalgesia thresholds were measured as the hind paw withdrawal threshold to a noxious mechanical stimulus and was determined using the paw pressure technique [Randall, L. O. and Selitto, J. J., A method for measurement of analgesic activity on inflamed tissue, Arch. […] Thresholds were evaluated prior to surgery and reassessed three weeks after SNL surgery. On test day, rats were administered vehicle or test compound mechanical thresholds assessed 1, 3, 5 and 24 hr after administration (n=10/group).

Cannabinoid, CB1 (hr) = Cannabinoid, CB1 (hr) (Homo sapiens, UniProt P21554); test: Receptor binding assay: Cannabinoid CB1; conditions: Test Compound @ 10 1 M
[3] = In vitro metabolism in hepatic microsomes, dog; type: in vitro ADME; conditions: male dogs, read-out: t1/2 in hepatic microsomes
Protocol: In vitro metabolism of 1-[2-dimethylamino-1-(4-phenol)ethyl]-cis-1,4-cyclohexandiol was conducted in the hepatic microsomes of Sprague-Dawley rats, male dogs, male monkeys and mixed male and female humans to characterize metabolic stability and identification of metabolites. 1-[2-dimethylamino-1-(4-phenol)ethyl]-cis-1,4-cyclohexandiol was stable (t1/2>60 minutes) in hepatic microsomes indicating Phase I and II metabolism was minimal in all species.

Serotonin Transporter = target: T4, Serotonin Transporter (Homo sapiens, UniProt P31645); test: Serotonin transporter (human) binding assay
T4 construct: Novascreen (contract assay)

Serotonin, 5HT2C = test: Receptor binding assay: Serotonin 5HT2C; conditions: Test Compound @ 10 1 M
[4] = Solution Stability in aqueous solutions; type: physicochemical; conditions: room temperature, all aqueous solutions (pH 1.4-10.0)
Serotonin, 5HT6 (hr) = Serotonin, 5HT6 (hr) (Homo sapiens, UniProt P50406); test: Receptor binding assay: Serotonin 5HT6; conditions: Test Compound @ 10 1 M
Chain of Serotonin, 5HT6 (hr) (P50406 whole entry): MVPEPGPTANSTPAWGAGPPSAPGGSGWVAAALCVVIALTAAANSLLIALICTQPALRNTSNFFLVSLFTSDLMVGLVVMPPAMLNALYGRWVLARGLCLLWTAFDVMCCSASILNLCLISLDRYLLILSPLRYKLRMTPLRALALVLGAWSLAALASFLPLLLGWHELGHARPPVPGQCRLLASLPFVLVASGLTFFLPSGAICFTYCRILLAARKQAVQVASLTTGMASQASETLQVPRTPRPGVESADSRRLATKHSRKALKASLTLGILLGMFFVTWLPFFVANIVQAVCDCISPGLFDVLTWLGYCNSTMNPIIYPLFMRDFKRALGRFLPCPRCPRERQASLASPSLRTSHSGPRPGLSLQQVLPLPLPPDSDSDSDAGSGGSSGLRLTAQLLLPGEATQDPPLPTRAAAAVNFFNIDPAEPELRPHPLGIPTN

T4 sequence (P31645 whole entry): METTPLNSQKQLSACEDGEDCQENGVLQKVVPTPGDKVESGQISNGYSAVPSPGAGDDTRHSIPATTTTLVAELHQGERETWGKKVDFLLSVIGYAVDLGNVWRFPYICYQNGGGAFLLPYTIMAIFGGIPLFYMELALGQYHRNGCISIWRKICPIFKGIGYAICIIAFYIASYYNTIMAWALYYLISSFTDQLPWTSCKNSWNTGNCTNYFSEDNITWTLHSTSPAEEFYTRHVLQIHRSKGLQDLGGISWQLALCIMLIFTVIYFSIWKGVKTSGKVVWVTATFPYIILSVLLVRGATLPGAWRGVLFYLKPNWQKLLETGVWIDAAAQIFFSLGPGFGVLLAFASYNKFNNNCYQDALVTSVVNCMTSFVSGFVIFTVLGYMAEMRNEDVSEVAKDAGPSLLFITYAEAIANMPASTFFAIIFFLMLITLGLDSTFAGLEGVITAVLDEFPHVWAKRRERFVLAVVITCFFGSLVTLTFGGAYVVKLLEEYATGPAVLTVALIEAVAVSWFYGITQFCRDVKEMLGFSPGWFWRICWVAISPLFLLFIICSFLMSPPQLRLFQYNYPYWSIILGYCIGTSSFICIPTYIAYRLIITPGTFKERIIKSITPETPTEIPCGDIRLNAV
Chain of Cannabinoid, CB1 (hr) (P21554 whole entry): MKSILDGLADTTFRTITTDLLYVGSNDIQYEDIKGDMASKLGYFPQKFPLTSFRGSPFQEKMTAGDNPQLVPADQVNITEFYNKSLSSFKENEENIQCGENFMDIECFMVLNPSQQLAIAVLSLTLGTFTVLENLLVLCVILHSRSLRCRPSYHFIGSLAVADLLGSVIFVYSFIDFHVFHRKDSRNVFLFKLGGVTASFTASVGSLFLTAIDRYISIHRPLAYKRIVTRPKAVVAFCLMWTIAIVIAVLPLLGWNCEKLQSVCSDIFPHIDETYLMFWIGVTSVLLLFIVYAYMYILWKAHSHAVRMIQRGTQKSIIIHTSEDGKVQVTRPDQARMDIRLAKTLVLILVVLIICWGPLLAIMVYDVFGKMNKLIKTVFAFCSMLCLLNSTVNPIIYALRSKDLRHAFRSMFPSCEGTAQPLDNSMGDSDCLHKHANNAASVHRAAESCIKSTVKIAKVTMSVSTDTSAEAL
Chain of Dopamine, D2s (hr) (P14416 1-414 isoform P14416-2): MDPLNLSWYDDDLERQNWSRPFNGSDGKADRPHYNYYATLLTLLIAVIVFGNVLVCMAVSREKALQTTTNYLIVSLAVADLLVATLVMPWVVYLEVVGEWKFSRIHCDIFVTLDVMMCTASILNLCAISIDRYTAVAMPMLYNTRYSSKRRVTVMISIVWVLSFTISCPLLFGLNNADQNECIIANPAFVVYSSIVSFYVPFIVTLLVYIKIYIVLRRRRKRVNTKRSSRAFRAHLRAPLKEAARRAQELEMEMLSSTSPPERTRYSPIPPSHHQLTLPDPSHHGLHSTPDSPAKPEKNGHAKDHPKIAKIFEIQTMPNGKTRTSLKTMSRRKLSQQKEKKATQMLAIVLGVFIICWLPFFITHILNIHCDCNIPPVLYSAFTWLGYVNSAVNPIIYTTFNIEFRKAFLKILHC
T2 sequence (P08908 whole entry): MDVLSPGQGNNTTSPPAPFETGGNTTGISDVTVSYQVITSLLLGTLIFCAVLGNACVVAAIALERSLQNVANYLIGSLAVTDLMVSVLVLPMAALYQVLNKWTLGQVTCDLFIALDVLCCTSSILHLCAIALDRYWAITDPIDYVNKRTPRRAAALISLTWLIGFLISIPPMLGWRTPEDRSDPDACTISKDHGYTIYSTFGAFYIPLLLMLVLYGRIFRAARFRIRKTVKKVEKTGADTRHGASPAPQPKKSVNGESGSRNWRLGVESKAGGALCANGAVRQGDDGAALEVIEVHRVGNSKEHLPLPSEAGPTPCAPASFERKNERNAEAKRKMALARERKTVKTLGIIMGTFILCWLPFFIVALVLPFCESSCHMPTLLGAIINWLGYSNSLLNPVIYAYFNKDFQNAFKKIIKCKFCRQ
T1 sequence (P30546 whole entry): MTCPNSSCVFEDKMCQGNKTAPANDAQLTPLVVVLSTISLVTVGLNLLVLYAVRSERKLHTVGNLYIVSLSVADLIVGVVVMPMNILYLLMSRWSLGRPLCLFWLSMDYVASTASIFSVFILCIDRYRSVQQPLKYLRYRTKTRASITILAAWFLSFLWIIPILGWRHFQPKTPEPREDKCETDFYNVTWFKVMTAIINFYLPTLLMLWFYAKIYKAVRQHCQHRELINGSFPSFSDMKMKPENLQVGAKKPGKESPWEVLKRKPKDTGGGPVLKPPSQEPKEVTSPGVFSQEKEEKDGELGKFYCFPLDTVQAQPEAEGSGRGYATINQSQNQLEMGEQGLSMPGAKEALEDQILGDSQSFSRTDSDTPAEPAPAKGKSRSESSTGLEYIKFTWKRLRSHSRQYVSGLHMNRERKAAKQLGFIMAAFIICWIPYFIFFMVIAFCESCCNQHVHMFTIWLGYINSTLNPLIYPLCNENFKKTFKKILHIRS
Chain of Dopamine, D4.4 (hr) (P21917 whole entry): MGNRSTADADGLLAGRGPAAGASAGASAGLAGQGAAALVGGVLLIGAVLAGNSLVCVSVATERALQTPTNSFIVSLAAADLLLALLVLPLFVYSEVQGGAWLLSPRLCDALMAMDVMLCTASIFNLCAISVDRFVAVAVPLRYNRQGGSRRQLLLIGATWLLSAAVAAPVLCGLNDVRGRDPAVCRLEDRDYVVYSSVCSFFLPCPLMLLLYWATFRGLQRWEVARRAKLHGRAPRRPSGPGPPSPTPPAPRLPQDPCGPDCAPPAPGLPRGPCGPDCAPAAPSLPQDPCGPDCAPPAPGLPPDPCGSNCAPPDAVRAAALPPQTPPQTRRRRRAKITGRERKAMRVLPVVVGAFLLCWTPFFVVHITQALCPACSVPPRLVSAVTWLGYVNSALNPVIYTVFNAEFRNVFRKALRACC
T3 sequence (P21396 whole entry): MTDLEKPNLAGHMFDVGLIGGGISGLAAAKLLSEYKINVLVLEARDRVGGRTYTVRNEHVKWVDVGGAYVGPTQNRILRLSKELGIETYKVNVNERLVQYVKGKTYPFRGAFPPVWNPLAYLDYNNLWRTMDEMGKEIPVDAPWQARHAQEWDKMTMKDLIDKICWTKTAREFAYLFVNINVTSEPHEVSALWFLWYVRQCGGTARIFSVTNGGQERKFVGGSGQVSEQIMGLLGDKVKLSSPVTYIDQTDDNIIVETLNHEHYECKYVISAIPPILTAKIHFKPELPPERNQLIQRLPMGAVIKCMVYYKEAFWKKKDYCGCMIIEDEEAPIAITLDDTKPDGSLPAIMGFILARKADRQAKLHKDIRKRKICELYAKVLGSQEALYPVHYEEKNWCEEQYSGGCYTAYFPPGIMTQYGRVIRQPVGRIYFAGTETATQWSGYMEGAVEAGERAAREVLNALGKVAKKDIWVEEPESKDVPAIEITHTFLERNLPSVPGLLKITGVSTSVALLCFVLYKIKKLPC
Chain of Adrenergic, Alpha 2C (hr) (P18825 whole entry): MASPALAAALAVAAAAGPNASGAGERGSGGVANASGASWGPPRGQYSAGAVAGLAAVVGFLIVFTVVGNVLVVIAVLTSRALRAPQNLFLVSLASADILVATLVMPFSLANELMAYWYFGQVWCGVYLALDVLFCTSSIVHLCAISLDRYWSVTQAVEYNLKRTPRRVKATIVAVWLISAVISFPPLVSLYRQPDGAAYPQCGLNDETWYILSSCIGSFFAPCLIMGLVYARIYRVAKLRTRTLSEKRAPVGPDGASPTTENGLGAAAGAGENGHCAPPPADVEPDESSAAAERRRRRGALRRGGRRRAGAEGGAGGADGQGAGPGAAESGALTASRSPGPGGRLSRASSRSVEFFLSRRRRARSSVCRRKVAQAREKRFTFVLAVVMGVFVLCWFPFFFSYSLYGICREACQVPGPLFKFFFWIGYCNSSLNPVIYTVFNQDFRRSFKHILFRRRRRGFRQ
Chain of Adrenergic, Beta 2 (hr) (P07550 whole entry): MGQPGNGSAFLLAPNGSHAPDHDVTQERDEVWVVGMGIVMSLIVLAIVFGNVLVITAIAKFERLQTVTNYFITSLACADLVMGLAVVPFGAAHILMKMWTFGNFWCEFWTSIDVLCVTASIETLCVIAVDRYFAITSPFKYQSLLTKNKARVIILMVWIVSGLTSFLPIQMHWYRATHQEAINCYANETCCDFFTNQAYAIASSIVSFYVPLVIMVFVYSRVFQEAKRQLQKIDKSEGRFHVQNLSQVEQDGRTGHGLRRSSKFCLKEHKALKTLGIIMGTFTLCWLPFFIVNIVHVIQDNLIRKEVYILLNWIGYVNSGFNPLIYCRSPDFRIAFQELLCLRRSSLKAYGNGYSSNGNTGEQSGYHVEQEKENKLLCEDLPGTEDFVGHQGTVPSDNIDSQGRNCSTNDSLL

In the case of `CN(C)CC(c1ccc(O)cc1)C1(O)CCC(O)CC1` (stereo not drawn) [1-[2-dimethylamino-1-(4-phenol)ethyl]-cis-1,4-cyclohexandiol], the inhibition at 10 µM (Histamine, H1) is reported as -7.84%, the “Receptor Binding % Inhibition” value (Melatonin) is reported as 11.20% and the inhibition at 10 µM (Dopamine, D2s (hr)) is reported as 6.17%. The “Receptor Binding % Inhibition” value (Histamine, H3) was 14.00%, the inhibition at 10 µM (Serotonin, 5HT1A (hr)) was 1.8% and the “Receptor Binding % Inhibition” value (Sigma 2) was 1.00%. For the same compound, the “Receptor Binding % Inhibition” value (Imidazoline, I2 central) was 3.24%, the “Receptor Binding % Inhibition” value (Glutamate, AMPA Site) was 2.50% and the efflux activity (CACO-2 cells; CACO-2, from B:A ratio) was “no efflux activity”. For the same compound, the permeability classification (CACO-2 cells; CACO-2, versus propranolol reference) was “high permeability”, the inhibition at 10 µM [1] was 3.06% and the inhibition at 10 µM (Adrenergic, Beta 2 (hr)) was -2.46%. For the same compound, the inhibition at 10 µM (Dopamine, D4.4 (hr)) was 3.39%, the inhibition at 10 µM (Oxidase, MAO-A, Central) was -0.11% and the “effect versus the SNL/vehicle” value ([2]; 10 and 30 mg/kg) was “positive trend”. The “MED, reversal of mechanical hyperalgesia” value ([2]; spinal nerve ligation, p.o.) was 10 mg/kg, the “reversal of mechanical hyperalgesia” value ([2]; spinal nerve ligation, p.o.) was “statistically significant reversal” and the inhibition at 10 µM (Cannabinoid, CB1 (hr)) was 8.11%. The half-life [3] was greater than 1 h, the inhibition at 10 µM (Serotonin Transporter; Serotonin Transporter, Test Compound @ 10 1 M, read-out: Receptor Binding % Inhibition) was 94.5% and the “serotonin reuptake inhibition activity” value (Serotonin Transporter; interpretation of the binding data in words) was “very good”. For the same compound, the “Receptor Binding % Inhibition” value (Serotonin, 5HT2C) was 10.05%, the “Solution Stability, time stable” value [4] was “The compound was stable for at least 24 hours” and the inhibition at 10 µM (Serotonin, 5HT6 (hr)) was 17.1%.
